The values below come from ChEMBL document CHEMBL2429743, “Synthesis and antitumor properties of novel curcumin analogs” (Med Chem Res, 2013).

Assay [1] relates to MGC-803. The assay is described as follows: cells. To be noted: Homo sapiens, MGC-803, 72 h.
Description: Cytotoxicity against human MGC803 cells after 72 hrs by MTT assay
Assay [2] relates to PC-3. Kind of assay: cells. Particulars: Homo sapiens, PC-3, 72 h.
Description: Cytotoxicity against human PC3 cells after 72 hrs by MTT assay
Assay [3] deals with Bcap37. Kind of assay: Cytotoxicity against human Bcap37 cells after 72 hrs by MTT assay. To be noted: Bcap37, 72 h.
Assay [4] in a line: Selectivity index, ratio of IC50 for mouse NIH3T3 cells to IC50 for human Bcap37 cells. The class given is functional.
Assay [5] is described as follows: Selectivity index, ratio of IC50 for mouse NIH3T3 cells to IC50 for human MGC803 cells. The class given is functional.
A short description of assay [6]: Selectivity index, ratio of IC50 for mouse NIH3T3 cells to IC50 for human PC3 cells. The format is functional.
Assay [7] has as its system MGC-803. The assay is described as follows: Induction of apoptosis in human MGC803 cells assessed as early and late apoptosis ratio at 5 uM after 12 hrs by annxinV-FITC/propidium iodide staining-based flow cytometry. The format is functional.
Assay [8] concerns Bcap37. The assay is described as follows: Induction of apoptosis in human Bcap37 cells assessed as smaller nuclei at 10 uM after 12 hrs by Hoechst 33258 staining-based fluorescence microscopic analysis. The class given is functional, cell-based.
In assay [9] the test system is MGC-803. Kind of assay: Induction of apoptosis in human MGC803 cells assessed as DNA fragmentation at 10 uM after 12 hrs by EB staining-based agarose gel electrophoresis relative to control. The class given is functional, cell-based.
Assay [10] has as its system MGC-803. Kind of assay: Induction of apoptosis in human MGC803 cells assessed as early and late apoptosis ratio at 5 uM after 6 hrs by annxinV-FITC/propidium iodide staining-based flow cytometry. The format is functional.
Assay [11] concerns MGC-803. Kind of assay: Induction of apoptosis in human MGC803 cells assessed as early and late apoptosis ratio at 10 uM after 24 hrs by annxinV-FITC/propidium iodide staining-based flow cytometry. The format is functional.
In assay [12] the test system is MGC-803. Kind of assay: Induction of apoptosis in human MGC803 cells assessed as early and late apoptosis ratio at 10 uM after 12 hrs by annxinV-FITC/propidium iodide staining-based flow cytometry. The format is functional.
Assay [13] deals with MGC-803. Kind of assay: Induction of apoptosis in human MGC803 cells assessed as early and late apoptosis ratio at 10 uM after 6 hrs by annxinV-FITC/propidium iodide staining-based flow cytometry. The class given is functional.
For assay [14], the system named is MGC-803. The assay is described as follows: Induction of apoptosis in human MGC803 cells assessed as smaller nuclei at 10 uM after 12 hrs by Hoechst 33258 staining-based fluorescence microscopic analysis. The format is functional, cell-based.
In assay [15] the test system is PC-3. Kind of assay: Induction of apoptosis in human PC3 cells assessed as smaller nuclei at 10 uM after 12 hrs by Hoechst 33258 staining-based fluorescence microscopic analysis. The class given is functional, cell-based.
In assay [16] the test system is MGC-803. Kind of assay: Induction of apoptosis in human MGC803 cells assessed as early and late apoptosis ratio at 5 uM after 24 hrs by annxinV-FITC/propidium iodide staining-based flow cytometry. The class given is functional.
For assay [17], the system named is MGC-803. Kind of assay: Induction of apoptosis in human MGC803 cells assessed as chromatin condensation at 10 uM after 12 hrs by Hoechst 33258 staining-based fluorescence microscopic analysis. The format is functional, cell-based.
For assay [18], the system named is PC-3. Kind of assay: Induction of apoptosis in human PC3 cells assessed as chromatin condensation at 10 uM after 12 hrs by Hoechst 33258 staining-based fluorescence microscopic analysis. The format is functional, cell-based.
Assay [19] has as its system Bcap37. The assay is described as follows: Induction of apoptosis in human Bcap37 cells assessed as chromatin condensation at 10 uM after 12 hrs by Hoechst 33258 staining-based fluorescence microscopic analysis. The class given is functional, cell-based.
For assay [20], the system named is MGC-803. Kind of assay: Induction of apoptosis in human MGC803 cells assessed as early and late apoptosis ratio at 1 uM after 24 hrs by annxinV-FITC/propidium iodide staining-based flow cytometry. The class given is functional.
Assay [21] has as its system MGC-803. The assay is described as follows: Induction of apoptosis in human MGC803 cells assessed as early and late apoptosis ratio at 1 uM after 12 hrs by annxinV-FITC/propidium iodide staining-based flow cytometry. The format is functional.
In assay [22] the test system is MGC-803. The assay is described as follows: Induction of apoptosis in human MGC803 cells assessed as early and late apoptosis ratio at 1 uM after 6 hrs by annxinV-FITC/propidium iodide staining-based flow cytometry. The format is functional.
For assay [23], the system named is Bcap37. Kind of assay: Induction of apoptosis in human Bcap37 cells assessed as pyknotic nuclei at 5 uM after 12 hrs by Hoechst 33258 staining-based fluorescence microscopic analysis. The format is functional, cell-based.
The subject of assay [24] is MGC-803. The assay is described as follows: Induction of apoptosis in human MGC803 cells assessed as chromatin condensation at 5 uM after 12 hrs by Hoechst 33258 staining-based fluorescence microscopic analysis. The format is functional, cell-based.
Assay [25] relates to MGC-803. Kind of assay: Induction of apoptosis in human MGC803 cells assessed as DNA fragmentation at 5 uM after 12 hrs by EB staining-based agarose gel electrophoresis relative to control. The format is functional, cell-based.
The subject of assay [26] is MGC-803. Kind of assay: Induction of apoptosis in human MGC803 cells assessed as pyknotic nuclei at 5 uM after 12 hrs by Hoechst 33258 staining-based fluorescence microscopic analysis. The class given is functional, cell-based.
In assay [27] the test system is MGC-803. The assay is described as follows: Induction of apoptosis in human MGC803 cells assessed as early and late apoptosis ratio at 1 to 10 uM by annxinV-FITC/propidium iodide staining-based flow cytometry. The format is functional, cell-based. Particulars: TDE = time-dependent effect.
For assay [28], the system named is PC-3. Kind of assay: Induction of apoptosis in human PC3 cells assessed as necrotic cells at 5 uM after 12 hrs by AO/EB staining-based fluorescence microscopic analysis. The format is functional, cell-based.
The subject of assay [29] is PC-3. The assay is described as follows: Induction of apoptosis in human PC3 cells assessed as pyknotic nuclei at 5 uM after 12 hrs by Hoechst 33258 staining-based fluorescence microscopic analysis. The class given is functional, cell-based.
The test system of assay [30] is Bcap37. Kind of assay: Induction of apoptosis in human Bcap37 cells assessed as chromatin condensation at 5 uM after 12 hrs by Hoechst 33258 staining-based fluorescence microscopic analysis. The format is functional, cell-based.
Assay [31] concerns Bcap37. The assay is described as follows: Induction of apoptosis in human Bcap37 cells assessed as early and late apoptic cells at 5 uM after 12 hrs by AO/EB staining-based fluorescence microscopic analysis. The class given is functional, cell-based.
Assay [32] has as its system PC-3. The assay is described as follows: Induction of apoptosis in human PC3 cells assessed as chromatin condensation at 5 uM after 12 hrs by Hoechst 33258 staining-based fluorescence microscopic analysis. The format is functional, cell-based.
Assay [33] concerns MGC-803. The assay is described as follows: Induction of apoptosis in human MGC803 cells assessed as early and late apoptic cells at 5 uM after 12 hrs by AO/EB staining-based fluorescence microscopic analysis. The format is functional, cell-based.
For assay [34], the system named is MGC-803. The assay is described as follows: Induction of apoptosis in human MGC803 cells assessed as necrotic cells at 5 uM after 12 hrs by AO/EB staining-based fluorescence microscopic analysis. The format is functional, cell-based.
The test system of assay [35] is PC-3. Kind of assay: Induction of apoptosis in human PC3 cells assessed as early and late apoptic cells at 5 uM after 12 hrs by AO/EB staining-based fluorescence microscopic analysis. The class given is functional, cell-based.
In assay [36] the test system is Bcap37. The assay is described as follows: Induction of apoptosis in human Bcap37 cells assessed as necrotic cells at 5 uM after 12 hrs by AO/EB staining-based fluorescence microscopic analysis. The class given is functional, cell-based.

pIC50: −log10 of the molar value. The source made the active and inactive calls. The calls are words filed in the database; no cut-off is given here. Where only a bound is given, the exact number is not on record here.

Take `Cc1nn(C)c(Cl)c1/C=C/C(=O)/C=C/c1ccc(Oc2ncnc3c(C)cccc23)cc1`: the pIC50 in [1] is 4.94; in assay [2] it was 4.78; in [3] it was 4.67.
As to `COc1cccc2c1C(=O)c1c(O)c3c(c(O)c1C2=O)C[C@@](O)(C(=O)CO)C[C@@H]3O[C@H]1C[C@H](N)[C@H](O)[C@H](C)O1` [DOXORUBICIN], the “Ratio IC50” value in assay [4], in [5] and in [6] was less than 2 in each case. Also, the pIC50 was 6.13 in [1], 6.00 in [2] and 5.72 in assay [3].
As for `Cc1cccc2c(Oc3ccc(/C=C/C(=O)/C=C/c4cc([N+](=O)[O-])ccc4Cl)cc3)ncnc12`, the results for the pIC50 in assay [1], in [2] and in [3] were 5.73, 5.55 and 5.10, respectively.
Consider `Cc1nn(C)c(Cl)c1/C=C/C(=O)/C=C/c1ccc(Oc2ncnc3ccccc23)cc1`, for which the negative-log IC50 (pIC50) is 5.03 in assay [1], 4.94 in [2] and 4.72 in assay [3].
Consider `CC[C@@]1(O)C(=O)OCc2c1cc1n(c2=O)Cc2cc3cc(O)ccc3nc2-1` [HYDROXYCAMPTOTHECIN], for which the Activity was determined as 5.8% in assay [7]; 1.8% in assay [10]; 24.5% in [11]; 8.6% in [12]; 3% in assay [13]; 7.6% in [16]. The results for the Activity in assay [20], in assay [21] and in assay [22] were 4.7%, 2% and 1.2%, respectively. The result in assay [8], in assay [9], in [14], in [15], in assay [17] and in [18] was Active. Also, the result in assay [19] was Active.
Regarding `CC(=O)/C=C/c1ccc(Oc2ncnc3c(C)cccc23)cc1`, the negative-log IC50 (pIC50) in assay [1] was 4.70; in assay [2], 4.59; in assay [3], 4.52.
Turning to `Cc1cccc2c(Oc3ccc(/C=C/C(=O)/C=C/c4ccc(F)cc4)cc3)ncnc12`, the pIC50 is 5.36 in assay [1], 5.13 in assay [2] and 5.03 in [3].
Take `O=C(/C=C/c1ccc(Oc2ncnc3ccccc23)cc1)/C=C/c1cc([N+](=O)[O-])ccc1Cl`: the Activity in assay [7] is 6.2%; in assay [10], 4.1%; in [27], “tde”; in [11], 27.1%; in [12] it was 10.5%; in [13] it was 6.4%. Moreover, the Activity stood at 8.9% in assay [16], 5.3% in [20], 2.8% in assay [21] and 2.4% in assay [22]. For the same compound, the result in assay [23], in [24], in assay [25], in assay [26], in [28] and in assay [29] was Active. Also, the outcome in assay [30], in assay [31], in [32], in [33], in assay [34] and in assay [35] was Active. Moreover, the result in assay [36] was Active. The “Ratio IC50” value in assay [4] is 5.72; in assay [5], greater than 8; in assay [6], greater than 8. In addition, the negative-log IC50 (pIC50) is 6.07 in assay [1], 5.87 in assay [2] and 5.41 in [3].
For the compound `O=C(/C=C/c1ccc(Cl)cc1)/C=C/c1ccc(Oc2ncnc3ccccc23)cc1`, the negative-log IC50 (pIC50) in [1] was 5.32; in [2] it was 5.13; in assay [3], 4.95.
In the case of `COc1ccccc1/C=C/C(=O)/C=C/c1ccc(Oc2ncnc3c(C)cccc23)cc1`, the negative logarithm of the IC50 (pIC50) is 5.42 in assay [1], 5.29 in [2] and 5.03 in assay [3].
For `CC(=O)/C=C/c1ccc(Oc2ncnc3ccccc23)cc1`, in that order: 4.73, 4.67 and 4.54.
For `O=C(/C=C/c1ccc(F)cc1)/C=C/c1ccc(Oc2ncnc3ccccc23)cc1`, the pIC50 in assay [1] was 5.42; in assay [2] it was 5.25; in assay [3], 5.07.
Turning to `Cc1cccc2c(Oc3ccc(/C=C/C(=O)/C=C/c4ccc(Cl)cc4Cl)cc3)ncnc12`, the pIC50 in [1] is 5.29; in assay [2], 4.82; in [3], 4.48.
With `Cc1cccc2c(Oc3ccc(/C=C/C(=O)/C=C/c4ccc(Cl)cc4)cc3)ncnc12`, the negative-log IC50 (pIC50) in assay [1] is 5.09; in [2] it was 5.06; in [3], 4.91.
Consider `O=C(/C=C/c1ccc(Oc2ncnc3ccccc23)cc1)/C=C/c1ccc(Cl)cc1Cl`, for which the figures for the pIC50 in assay [1], in [2] and in [3] were 5.56, 5.34 and 4.97, respectively.
Regarding `COc1ccccc1/C=C/C(=O)/C=C/c1ccc(Oc2ncnc3ccccc23)cc1`, the entries for the “Ratio IC50” value in assay [4], in assay [5] and in [6] were less than 2, 6.13 and 3.4, respectively. Also, the negative logarithm of the IC50 (pIC50) in assay [1] is 5.69; in assay [2], 5.44; in assay [3] it was 5.11.
`COc1ccc(OC)c(/C=C/C(=O)/C=C/c2ccc(Oc3ncnc4ccccc34)cc2)c1`: the “Ratio IC50” value in assay [4] is reported as less than 2; in [5] it was 6.57; in assay [6], 4.46. Further, the figures for the pIC50 in [1], in assay [2] and in [3] were 5.70, 5.53 and 5.11, respectively.
On to `COc1ccc(OC)c(/C=C/C(=O)/C=C/c2ccc(Oc3ncnc4c(C)cccc34)cc2)c1`, for which the negative logarithm of the IC50 (pIC50) was 5.63 in assay [1], 5.33 in [2] and 5.09 in [3].
